The assay deals with Xanthine dehydrogenase/oxidase (Bos taurus, UniProt P80457). Description: XO inhibitory activity. To be noted: pH 7.6; 25 °C. How it is done:
The enzyme was pre-incubated for 5 min, with test compound, dissolved in DMSO (1% v/v). The reaction was initiated by the addition of xanthine.

Chain of Xanthine dehydrogenase/oxidase (P80457 whole entry): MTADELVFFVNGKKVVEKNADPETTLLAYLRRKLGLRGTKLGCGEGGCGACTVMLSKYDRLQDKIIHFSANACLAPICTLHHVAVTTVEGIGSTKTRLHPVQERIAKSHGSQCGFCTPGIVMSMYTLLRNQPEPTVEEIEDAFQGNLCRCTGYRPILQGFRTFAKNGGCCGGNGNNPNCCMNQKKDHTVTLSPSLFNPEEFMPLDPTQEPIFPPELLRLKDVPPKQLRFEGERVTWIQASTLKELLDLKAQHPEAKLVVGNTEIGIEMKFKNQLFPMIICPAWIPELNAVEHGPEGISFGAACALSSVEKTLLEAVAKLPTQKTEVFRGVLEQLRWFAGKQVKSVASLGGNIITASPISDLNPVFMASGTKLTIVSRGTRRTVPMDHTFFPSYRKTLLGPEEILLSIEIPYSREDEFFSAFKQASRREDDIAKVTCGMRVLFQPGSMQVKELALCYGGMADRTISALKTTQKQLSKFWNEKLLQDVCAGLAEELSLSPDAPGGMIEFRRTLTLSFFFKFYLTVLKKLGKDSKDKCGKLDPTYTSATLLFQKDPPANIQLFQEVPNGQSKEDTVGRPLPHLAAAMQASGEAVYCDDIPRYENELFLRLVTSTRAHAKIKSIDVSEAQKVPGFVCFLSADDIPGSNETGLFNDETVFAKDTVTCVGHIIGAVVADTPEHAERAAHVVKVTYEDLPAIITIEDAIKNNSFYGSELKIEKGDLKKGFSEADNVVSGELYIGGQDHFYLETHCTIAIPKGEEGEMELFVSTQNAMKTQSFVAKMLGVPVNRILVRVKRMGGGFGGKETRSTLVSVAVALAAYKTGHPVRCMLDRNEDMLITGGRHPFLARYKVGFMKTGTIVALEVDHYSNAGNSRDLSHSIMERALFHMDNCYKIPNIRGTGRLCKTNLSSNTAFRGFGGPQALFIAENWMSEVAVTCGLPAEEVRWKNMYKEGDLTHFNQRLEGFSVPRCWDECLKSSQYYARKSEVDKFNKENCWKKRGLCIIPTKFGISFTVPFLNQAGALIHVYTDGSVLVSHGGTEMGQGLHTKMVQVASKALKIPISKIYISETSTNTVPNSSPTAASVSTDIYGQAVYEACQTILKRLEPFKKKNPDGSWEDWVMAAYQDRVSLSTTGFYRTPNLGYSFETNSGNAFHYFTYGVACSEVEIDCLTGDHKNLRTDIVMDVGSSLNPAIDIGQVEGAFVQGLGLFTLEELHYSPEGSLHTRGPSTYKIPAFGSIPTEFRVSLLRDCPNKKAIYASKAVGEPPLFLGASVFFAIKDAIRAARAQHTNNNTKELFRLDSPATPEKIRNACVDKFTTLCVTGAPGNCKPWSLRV

For orientation: IC50 means the midpoint of a concentration-inhibition curve. On to `Clc1ccc(Cn2c(-c3ccc(Cl)cc3)nc3ccccc32)cc1` [2‐(4‐chlorophenyl)‐1‐[(4‐chlorophenyl)methyl]‐1,3‐ benzodiazole (B2)], for which the IC50 is 6.3 µM.

As to `COc1cccc(Cn2c(-c3cccc(OC)c3)nc3ccccc32)c1` [2‐(3‐methoxyphenyl)‐1‐[(3‐methoxyphenyl)methyl]‐ 1,3‐benzodiazole (B13)], inhibition was half-maximal at 5.1 µM (IC50). For `c1cncc(Cn2c(-c3cccnc3)nc3ccccc32)c1` [2‐(pyridin‐3‐yl)‐1‐(pyridin‐3‐ylmethyl)‐1,3‐ benzodiazole (B12)] the value was 7.1 µM; for `Oc1cccc(Cn2c(-c3cccc(O)c3)nc3ccccc32)c1` [3‐{1‐[(3‐hydroxyphenyl)methyl]‐1,3‐benzodiazol‐2‐ yl}phenol (B7)], 5.8 µM; for `Cc1ccccc1Cn1c(-c2ccccc2C)nc2ccccc21` [2‐(2‐methylphenyl)‐1‐[(2‐methylphenyl)methyl]‐1,3‐ benzodiazole (B4)], 5.6 µM. On to `Oc1ccc2ccccc2c1-c1nc2ccccc2n1Cc1ccc2ccccc2c1O` [1‐{1‐[(1‐hydroxynaphthalen‐2‐yl)methyl]‐1,3‐ benzodiazol‐2‐yl}naphthalen‐2‐ol (B11)], for which the IC50 turned out to be 5.3 µM. For `COc1ccc(Cn2c(-c3ccc(OC)cc3)nc3ccccc32)cc1` [2‐(4‐methoxyphenyl)‐1‐[(4‐methoxyphenyl)methyl]‐ 1,3‐benzodiazole (B14)] the value was 8.5 µM.

On to `Cc1ccc(Cn2c(-c3ccc(C)cc3)nc3ccccc32)cc1` [2‐(4‐methylphenyl)‐1‐[(4‐methylphenyl)methyl]‐1,3‐ benzodiazole (B5)], for which the IC50 was 7.5 µM. As to `c1ccc(Cn2c(-c3ccccc3)nc3ccccc32)cc1` [1‐benzyl‐2‐phenyl‐1,3‐benzodiazole (B10)], it took 9.7 µM to reach half-maximal inhibition (IC50). The molecule `Clc1cccc(Cn2c(-c3cccc(Cl)c3)nc3ccccc32)c1` [2‐(3‐chlorophenyl)‐1‐[(3‐chlorophenyl)methyl]‐1,3‐ benzodiazole (B8)] came in with an IC50 of 8.2 µM.

With `Cc1cccc(Cn2c(-c3cccc(C)c3)nc3ccccc32)c1` [2‐(3‐methylphenyl)‐1‐[(3‐methylphenyl)methyl]‐1,3‐ benzodiazole (B9)], inhibition was half-maximal at 4.3 µM (IC50). The molecule `Clc1ccccc1Cn1c(-c2ccccc2Cl)nc2ccccc21` [2‐(2‐chlorophenyl)‐1‐[(2‐chlorophenyl)methyl]‐1,3‐ benzodiazole (B3)] came in with an IC50 of 4.4 µM.

Consider `Oc1ccccc1Cn1c(-c2ccccc2O)nc2ccccc21`, for which the midpoint of inhibition, the IC50, lay at 8.7 µM. On to `Oc1ccc(Cn2c(-c3ccc(O)cc3)nc3ccccc32)cc1` [4‐{1‐[(4‐hydroxyphenyl)methyl]‐1,3‐benzodiazol‐2‐ yl}phenol (B6)], for which 4.5 µM corresponded to half-maximal inhibition (IC50).
